Experimental data as given in patent publication US20110190249A1, “THERAPEUTIC METHODS AND USES OF SAPOGENINS AND THEIR DERIVATIVES” (PHYTOPHARM PLC, priority 2002, published 2011).

Legend:
[1] = system: β2 adrenoceptor; test: β2 adrenoceptor density in CHO-β2/m3 co-transfected cell line; type: cell-based; details: day 5
Source text: (§1) The effects of epismilagenin cathylate, sarsasapogenin cathylate, episarsasapogenin cathylate, episarsasapogenin succinate, epismilagenin acetate and sarsasapogenin on the expression of muscarinic acetylcholine receptor (m) in CHO cells or β2 and m3 receptors in CHO cells transfected with either a vector for the m receptor or co-transfected with the vector for β2 and m3 receptors were investigated.
(§2) The results are illustrated in Table 1 below and in FIG. 1 of the drawings. Over the culturing period of CHO cells transfected with a vector for the m receptor, treatment with epismilagenin cathylate, sarsasapogenin cathylate, episarsasapogenin cathylate, episarsasapogenin succinate and sarsasapogenin each prevents the decrease in m receptor number.

[2] = system: m3 receptor; test: m3 receptor density in CHO-β2/m3 co-transfected cell line; type: cell-based; details: day 5
Source text: as §1, §2

CC(=O)OC1CCC2(C)C(CCC3C2CCC2(C)C3CC3OC4(CCC(C)CO4)C(C)C32)C1 (centres unmarked) [epismilagenin acetate]
decrease in β2 adrenoceptors (density) [1]: significantly prevented the decrease
density of m3 receptors [2]: did not significantly alter
